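Assay format: 96-well plates, 48-hour exposure. The concentration for 50% growth inhibition is given as GI50.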 Active and inactive are the calls of the source. Rule as the data show it: active = GI50 up to about 1.1 µM and inactive = higher.
Columns and labels:
Assay in all cases: NCI-60 cell line screen, 48 h
[1] = system: 786-0
[2] = system: A498
[3] = system: A549
[4] = system: ACHN
[5] = system: CAKI-1
[6] = system: CCRF-CEM
[7] = system: COLO 205
[8] = system: DLD-1
[9] = system: DMS-114
[10] = system: DMS-273
[11] = system: EKVX
[12] = system: HCC 2998
[13] = system: HCT-15
[14] = system: HOP-18
[15] = system: HOP-62
[16] = system: HOP-92
[17] = system: HT-29
[18] = system: IGROV-1
[19] = system: K562
[20] = system: KM-20L2
[21] = system: KM12
[22] = system: LOX IMVI
[23] = system: LXFL 529
[24] = system: M14
[25] = system: M19-MEL
[26] = system: MOLT-4
[27] = system: Malme-3M
[28] = system: NCI-H23
[29] = system: NCI-H460
[30] = system: NCI-H522
[31] = system: OVCAR-3
[32] = system: OVCAR-4
[33] = system: OVCAR-5
[34] = system: OVCAR-8
[35] = system: RPMI-8226
[36] = system: RXF 393
[37] = system: SF-268
[38] = system: SF-295
[39] = system: SF-539
[40] = system: SK-MEL-28
[41] = system: SK-MEL-2
[42] = system: SK-MEL-5
[43] = system: SK-OV-3
[44] = system: SN12C
[45] = system: SNB-19
[46] = system: SNB-75
[47] = system: SNB-78
[48] = system: SW-620
[49] = system: TK-10
[50] = system: U-251
[51] = system: UACC-257
[52] = system: UACC-62
[53] = system: UO-31
[54] = system: XF498
[55] = system: HCT-116
[56] = system: HL-60
[57] = system: NCI-H226
[58] = system: SR

N=C(N)NS(=O)(=O)c1ccc(NC(=O)c2cccc3c(Nc4ccc(S(N)(=O)=O)cc4)c4ccccc4nc23)cc1
GI50 [1]: > 100 µM (inactive)
GI50 [2]: > 100 µM (inactive)
GI50 [3]: > 100 µM (inactive)
GI50 [4]: > 100 µM (inactive)
GI50 [5]: > 100 µM (inactive)
GI50 [6]: > 100 µM (inactive)
GI50 [7]: > 100 µM (inactive)
GI50 [8]: > 100 µM (inactive)
GI50 [9]: > 100 µM (inactive)
GI50 [10]: > 100 µM (inactive)
GI50 [11]: > 100 µM (inactive)
GI50 [12]: > 100 µM (inactive)
GI50 [13]: > 100 µM
GI50 [14]: > 100 µM (inactive)
GI50 [15]: > 100 µM (inactive)
GI50 [16]: > 100 µM (inactive)
GI50 [17]: > 100 µM (inactive)
GI50 [18]: > 100 µM (inactive)
GI50 [19]: > 100 µM (inactive)
GI50 [20]: > 100 µM (inactive)
GI50 [21]: > 100 µM (inactive)
GI50 [22]: > 100 µM (inactive)
GI50 [23]: > 100 µM (inactive)
GI50 [24]: > 100 µM (inactive)
GI50 [25]: > 100 µM (inactive)
GI50 [26]: > 100 µM (inactive)
GI50 [27]: > 100 µM (inactive)
GI50 [28]: > 100 µM (inactive)
GI50 [29]: > 100 µM (inactive)
GI50 [30]: > 100 µM (inactive)
GI50 [31]: > 100 µM (inactive)
GI50 [32]: > 100 µM (inactive)
GI50 [33]: > 100 µM (inactive)
GI50 [34]: > 100 µM (inactive)
GI50 [35]: > 100 µM (inactive)
GI50 [36]: > 100 µM (inactive)
GI50 [37]: > 100 µM (inactive)
GI50 [38]: > 100 µM (inactive)
GI50 [39]: > 100 µM (inactive)
GI50 [40]: > 100 µM (inactive)
GI50 [41]: > 100 µM (inactive)
GI50 [42]: > 100 µM (inactive)
GI50 [43]: > 100 µM (inactive)
GI50 [44]: > 100 µM (inactive)
GI50 [45]: > 100 µM (inactive)
GI50 [46]: > 100 µM (inactive)
GI50 [47]: > 100 µM (inactive)
GI50 [48]: > 100 µM (inactive)
GI50 [49]: > 100 µM (inactive)
GI50 [50]: > 100 µM (inactive)
GI50 [51]: > 100 µM (inactive)
GI50 [52]: > 100 µM (inactive)
GI50 [53]: > 100 µM (inactive)
GI50 [54]: > 100 µM (inactive)

O=C(/C=C/c1ccc(O)c(O)c1)OC1C[C@@](O)(C(=O)O)C[C@@H](O)[C@H]1OC(=O)/C=C/c1ccc(O)c(O)c1 (stereo partly drawn)
GI50 [1]: > 100 µM (inactive)
GI50 [2]: > 100 µM (inactive)
GI50 [3]: > 100 µM (inactive)
GI50 [4]: > 100 µM (inactive)
GI50 [6]: > 100 µM (inactive)
GI50 [7]: > 100 µM (inactive)
GI50 [8]: > 100 µM (inactive)
GI50 [9]: > 100 µM (inactive)
GI50 [10]: > 100 µM (inactive)
GI50 [11]: > 100 µM (inactive)
GI50 [12]: > 100 µM (inactive)
GI50 [55]: > 100 µM (inactive)
GI50 [13]: > 100 µM
GI50 [56]: > 100 µM (inactive)
GI50 [14]: > 100 µM (inactive)
GI50 [15]: > 100 µM (inactive)
GI50 [16]: > 100 µM (inactive)
GI50 [17]: > 100 µM (inactive)
GI50 [18]: > 100 µM (inactive)
GI50 [19]: > 100 µM (inactive)
GI50 [20]: 37.1 µM (inactive)
GI50 [21]: > 100 µM (inactive)
GI50 [22]: > 100 µM (inactive)
GI50 [23]: > 100 µM (inactive)
GI50 [24]: > 100 µM (inactive)
GI50 [25]: > 100 µM (inactive)
GI50 [26]: > 100 µM (inactive)
GI50 [27]: > 100 µM (inactive)
GI50 [57]: > 100 µM (inactive)
GI50 [28]: > 100 µM (inactive)
GI50 [29]: > 100 µM (inactive)
GI50 [30]: > 100 µM (inactive)
GI50 [31]: > 100 µM (inactive)
GI50 [32]: > 100 µM (inactive)
GI50 [33]: > 100 µM (inactive)
GI50 [34]: > 100 µM (inactive)
GI50 [35]: > 100 µM (inactive)
GI50 [36]: > 100 µM (inactive)
GI50 [37]: > 100 µM (inactive)
GI50 [38]: > 100 µM (inactive)
GI50 [39]: > 100 µM (inactive)
GI50 [40]: > 100 µM (inactive)
GI50 [41]: > 100 µM (inactive)
GI50 [42]: > 100 µM (inactive)
GI50 [43]: > 100 µM (inactive)
GI50 [47]: > 100 µM (inactive)
GI50 [58]: > 100 µM (inactive)
GI50 [48]: > 100 µM (inactive)
GI50 [49]: > 100 µM (inactive)
GI50 [50]: > 100 µM (inactive)
GI50 [51]: > 100 µM (inactive)
GI50 [52]: > 100 µM (inactive)
GI50 [53]: > 100 µM (inactive)
GI50 [54]: > 100 µM (inactive)
